Test results taken from patent US8367677B2, “Non-glycosylated/non-glycosidic/non-peptidic small molecule PSGL-1 mimetics for the treatment of inflammatory disorders” (Revotar Biopharmaceuticals AG, priority 2004, dated 2013).

Experiments:
[1] = Parallel Artificial Membrane Permeation Assay (PAMPA); type: in vitro ADME; settings: 16 hours, room temperature; for [% flux] at pH 4.0: pH 4.0, 500 μM donor; for [% flux] at pH 7.4: pH 7.4, 500 μM donor
Protocol: The test compounds are dissolved at 10 mM in DMSO and diluted to 500 μM with PBS pH 7.4 or pH 4.0, respectively resulting in ‘donor solutions’. For use as an artificial membrane, a 1% solution of lecithin (w/v) in dodecane is prepared and sonicated. Then, 5 μl of the lecithin/dodecane mixture are carefully pipetted into each donor plate well. Immediately after the application of the artificial membrane, 150 μl of drug containing donor solutions are added to each well of the donor plate. Each well of the acceptor plate is filled with 300 μl buffer (PBS with 5% DMSO at pH 7.4 or pH 4.0, respectively) and the drug-filled donor plate is placed onto the acceptor plate, making sure the membrane is in contact with the buffer. After replacement of the lid, the assembled plates are transferred into a sealed box equipped with a moistured towel and incubated at room temperature for 16 hours. Then, the wells of the acceptor plate are analyzed with LC/MS.

[2] = tested on: human E-selectin-IgG chimera; assay: Flow chamber assay, cell adhesion and rolling under flow conditions, E-selectin; type: cell-based; settings: 125 μM compound, flow shear 1 dyne/cm^2
Protocol: (§1) To assess the capability of compounds to inhibit cell binding under dynamic conditions resembling the flow in a blood vessel, flow chamber assays addressing/testing binding of HL-60 cells/various cell lines to P-selectin, L-selectin and E-selectin chimeric molecules are performed.
(§2) Cell attachment under flow conditions are determined using a parallel flow chamber system. A 35 mm polystyrene culture dish is coated for 1 hour at room temperature with coating buffer (50 mM tris-(hydroxymethyl)aminomethane buffer (Tris), 150 mM NaCl, 2 mM CaCl2; pH 7,4) containing human E- or P-selectin-IgG chimera at concentrations of 2.5 μg/ml or 10 μg/ml, respectively. After removal of the coating solution non specific binding sites are blocked for an additional hour with 1% BSA in coating buffer at room temperature. After washing with assay buffer (“Roswell Park Memorial Institute 1640” (RPMI 1640)+10 mM HEPES) the dish is fitted into a parallel plate laminar flow chamber (sold from Glycotech, Rockville, Md.) and mounted on an inverted phase-contrast microscope (sold from Olympus, Hamburg, Germany) equipped with a CCD camera (JVC) that is connected to a PC. Employing a peristaltic pump (sold from Ismatec, Wertheim-Mondfeld, Germany) the re-circulating system is equilibrated with assay buffer containing 125 μM compound or vehicle control (DMSO). Cells (1 million/ml) are added to the chamber and allowed to distribute for 2 minutes at a high flow rate. The flow rate is then decreased resulting in a calculated flow shear of 1 dyne/cm^2. Video sequences of 10 low power fields are digitally recorded after 5 minutes continuous flow. The percentage of inhibition is calculated from the mean number of cells per field that attached to the coated dish surface in the presence versus absence of compound […].

[3] = target: T1, human L-Selectin-IgG-chimera (Homo sapiens, UniProt P14151); assay: Sialyl Lewis x Tyrosine Sulfate Assay (sLex TSA), L-selectin; type: binding; settings: compound at 100 μM
T1 construct: fused on or other part: human IgG Fc part, a tag and dimerising handle that is captured by the goat anti-human Fc antibody on the plate
T1 sequence (P14151 39-318 limits assumed): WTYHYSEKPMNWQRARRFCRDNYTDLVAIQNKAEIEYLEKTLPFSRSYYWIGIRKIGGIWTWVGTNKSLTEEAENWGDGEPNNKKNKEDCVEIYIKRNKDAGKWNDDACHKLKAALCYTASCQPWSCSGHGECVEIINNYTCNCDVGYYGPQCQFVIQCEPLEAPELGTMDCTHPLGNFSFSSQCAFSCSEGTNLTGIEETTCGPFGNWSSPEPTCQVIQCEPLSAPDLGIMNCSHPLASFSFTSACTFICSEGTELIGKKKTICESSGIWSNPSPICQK
Protocol: (§3) Compounds of the present invention are assayed on a molecular level for their ability to inhibit the binding of P-, L-, or E-selectin chimeric molecules to sLe^x and tyrosinesulfate residues linked to a polymeric matrix as a PSGL-1 substitute.
(§4) Microtiter plates are coated overnight in carbonate buffer pH9.6 with goat anti human Fc mAB (10 μg/ml). After washing in assay buffer (25 mM 4-(2-hydroxyethyl)-1-piperazineethanesulfonic acid (HEPES), 150 mM NaCl, 1 mM CaCl2 pH7.4) and blocking (3% bovine serum albumin (BSA) in assay buffer) plates are incubated for 2 h at 37° C. with human P-Selectin-IgG-chimera (0.61 nM respectively 150 ng/mL) or human L-Selectin-IgG-chimera (0.61 nM respectively 89 ng/mL) or human E-Selectin-IgG-chimera (0.61 nM respectively 131 ng/mL). 5 μl of sLe^x-tyrosine sulfate polyacrylamide (1 mg/ml) carrying 15% sLe^x, 10% Tyrosine-sulfate and 5% biotin is complexed with 20 μl Streptavidin-Peroxidase solution (1 mg/ml) and 25 μl assay buffer without CaCl2. For use in the assay, the ligand complex is diluted 1:10000 in assay buffer and further diluted 1:1 with varying amounts of compounds in assay buffer incl. 2% DMSO. This mixture is added to the wells precoated with E- or P-selectin. After incubation for 2 h at 37° C., wells are washed for six times with in assay buffer incl. 0.005% Polyoxyethylenesorbitan monolaurate (TWEEN 20), developed for 10-15 min with 20 μl 3,3′,5,5′-tetramethylbenzidine (TMB)/H2O2 substrate solution and stopped with 20 μl […]. Bound sLe^x-Tyrosine sulfate ligand complex is determined by measuring optical density at 450 nm vs. 620 nm in a Fusion alpha-FP reader (sold from Packard Bioscience, Dreieich, Germany).

[4] = target: T2, human P-Selectin-IgG-chimera (Homo sapiens, UniProt P16109); assay: Sialyl Lewis x Tyrosine Sulfate Assay (sLex TSA), P-selectin; type: binding; settings: compound at 100 μM
T2 sequence (P16109 42-771 limits assumed): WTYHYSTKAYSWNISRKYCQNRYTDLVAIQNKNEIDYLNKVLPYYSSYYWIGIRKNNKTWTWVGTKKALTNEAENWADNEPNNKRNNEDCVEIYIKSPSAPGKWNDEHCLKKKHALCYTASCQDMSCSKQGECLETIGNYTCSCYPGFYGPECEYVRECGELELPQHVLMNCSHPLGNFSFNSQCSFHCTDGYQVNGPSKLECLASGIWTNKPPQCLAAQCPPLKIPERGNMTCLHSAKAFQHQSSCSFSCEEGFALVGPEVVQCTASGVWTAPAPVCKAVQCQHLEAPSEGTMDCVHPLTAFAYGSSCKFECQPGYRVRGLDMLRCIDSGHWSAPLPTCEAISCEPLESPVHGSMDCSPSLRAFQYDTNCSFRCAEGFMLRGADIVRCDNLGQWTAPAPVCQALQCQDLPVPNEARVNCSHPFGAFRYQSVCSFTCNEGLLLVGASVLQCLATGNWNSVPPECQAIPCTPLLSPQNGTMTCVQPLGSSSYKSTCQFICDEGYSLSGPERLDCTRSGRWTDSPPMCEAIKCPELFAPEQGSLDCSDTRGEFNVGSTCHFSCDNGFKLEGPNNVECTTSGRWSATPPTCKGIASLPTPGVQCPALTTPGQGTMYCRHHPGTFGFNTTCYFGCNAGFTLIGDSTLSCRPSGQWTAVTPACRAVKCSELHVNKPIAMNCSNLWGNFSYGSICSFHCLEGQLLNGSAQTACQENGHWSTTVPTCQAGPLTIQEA
Protocol: as §3, §4

[5] = target: T3, human E-Selectin-IgG-chimera (Homo sapiens, UniProt P16581); assay: Sialyl Lewis x Tyrosine Sulfate Assay (sLex TSA), E-selectin; type: binding; settings: compound at 100 μM
T3 construct: fused on or other part: human IgG Fc part, a tag and dimerising handle that is captured by the goat anti-human Fc antibody on the plate
T3 sequence (P16581 22-175 limits assumed): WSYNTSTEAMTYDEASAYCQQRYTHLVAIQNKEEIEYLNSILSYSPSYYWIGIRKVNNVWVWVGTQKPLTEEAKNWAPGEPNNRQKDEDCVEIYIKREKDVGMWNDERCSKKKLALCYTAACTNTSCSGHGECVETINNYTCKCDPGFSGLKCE
Protocol: as §3, §4

[6] = tested on: human P-selectin-IgG chimera; assay: Flow chamber assay, cell adhesion and rolling under flow conditions, P-selectin; type: cell-based; settings: 125 μM compound, flow shear 1 dyne/cm^2
Protocol: as §1, §2

| Structure (SMILES) | [% flux] at pH 4.0 [1] [%] | [% flux] at pH 7.4 [1] [%] | E-Selectin [% Inhib.] of cell attachment [2] [%] | L-Selectin [% Inhib.] [3] [%] | P-Selectin [% Inhib.] [4] [%] | E-Selectin [% Inhib.] [5] [%] | P-Selectin [% Inhib.] of cell attachment [6] [%] |
| --- | --- | --- | --- | --- | --- | --- | --- |
| Cc1cccc(NC(=O)CCc2ccc(O)c(O)c2O)c1 [Compound 121] | 12 | 12 | 18 | 77 | 73 | 29 | 44 |
| Cc1cccc(NC(=O)Cc2ccc(O)c(O)c2O)c1 [Compound 122] | 6 | 0 | 27 | 87 | 81 | 70 | 22 |
